Test results as given in patent US9707155B2, “Delamination resistant pharmaceutical glass containers containing active pharmaceutical ingredients” (Corning Incorporated, priority 2013, dated 2017).
Blank lines part the entries; values can stand above or below the molecule they belong to.

Tests used:
[1] = system: patients with acute coronary syndromes; details: compared to unfractionated heparin and eptifibatide; cited from earlier work
[2] = in vivo; cited from earlier work
[3] = cited from earlier work
tumor cell lines = details: cited from earlier work
tumor xenografts (WM9) = assay: Melanoma xenografts (WM9) in nude mice; type: in vivo; details: 5 days treatment, versus untreated mice
Description: Tumor cells (5×10^6) are injected into the bilateral flanks of female […] nude mice (6-8 weeks of age). The tumors are measured with calipers using the formula: V=[…], where V is the volume, L is the largest diameter, and I is the perpendicular diameter of the tumor. When the volume of the tumor nodules reaches 100-150 mm^3, mice are randomly assigned to control or treatment groups (6-9 mice/group).
Therapeutic treatment with a combination of SAR2405550/BSI-201 and the alkylating agent TMZ was initiated when tumor xenografts (WM9) in nude mice reach 100 mm^3 in volume and treatment was continued for 5 days. In specific instances, the tumor volume is measured for assessment of therapeutic effect.

blood glucose = assay: Action profile in dogs (blood glucose as percentage of initial level); type: in vivo; details: blood glucose at 1 h, 2 h, 3 h, 5 h, 7h
Description: An action profile of Lyxumia and/or Lyxumia and Lantus (in combination) after subjection to the storage conditions described in Example 6 is carried out by comparing insulin glargine in dogs with human insulin-Arg^B31-Arg^B32-OH and basal H insulin as an NPH (neutral protamine Hagedorn) composition containing about 10 μg of Zn^2+.
Blood glucose is measured as a percentage of the initial level at the following time points: 1 h, 2 h, 3 h, 5 h, 7h.

[4] = Stability after storage conditions; type: physicochemical; details: under the chosen conditions
[5] = system: IL-6-dependent myeloma cell line, KPMM2; assay: IL-6 signaling mediated by mIL-6R, KPMM2 growth; type: cell-based
Description: IL-6-dependent myeloma cell line, KPMM2 (1×10^5 cells/mL) are cultured with IL-6 (0-100 ng/mL) and sarilumab (0-100 μg/mL) in a CO2 incubator for 4 days in a 96-well plate. After incubation, the amount of [^3H]-thymidine uptake into cells is determined with a scintillation counter.

BAF-h130 cells = assay: IL-6 signaling mediated by sIL-6R, BAF-h130 proliferation ([3H]-thymidine uptake); type: cell-based, murine; details: IL-6 100 ng/mL, sIL-6R 500 ng/mL, 4 days
Description: BAF-h130 cell is a human gp130-transfected murine pro-B cell, BAF-B03. BAF-h130 cells (1×10^4) are cultured with IL-6 (100 ng/mL) (Genzyme-techne, Minneapolis, Minn., USA), sIL-6R (500 ng/mL) or sarilumab (0.01-100 Ag/mL) at 37° C. under 5% CO2 for 4 days in 96-well flat-bottomed plates. The culture is performed in quadruplicate. [^3H]-thymidine (10 μL/well, 3.7 MBq/mL) (Amercham Pharmacia Biotech, Piscataway, N.J., USA) is added to each well 5 h before the completion of culture. After incubation, the amount of [^3H]-thymidine uptake into cells is determined with a scintillation counter (1450 MicroBeta) (Wallace Oy, Turku, Finland).
BaF-h130 cells could grow by the co-addition of IL-6 (100 ng/ml) and sIL-6R (500 ng/mL), but not by IL-6 or sIL-6R alone. […] Sarilumab suppresses the IL-6/sIL-6R complex-induced proliferation of human gp130-transfected cell, BAF-h130.

[6] = system: patients with active rheumatoid arthritis; details: week 12, subcutaneous, relative to placebo, patients receiving methotrexate; cited from earlier work
human IL-6R = target: T1, human IL-6R (Homo sapiens, UniProt P08887); assay: Binding to COS-7 cells transfected with human IL-6R (fluorescent intensity); type: cell-based
T1 construct: expressed in transfected cells; host or cells: COS-7 cells
T1 sequence (P08887 20-468): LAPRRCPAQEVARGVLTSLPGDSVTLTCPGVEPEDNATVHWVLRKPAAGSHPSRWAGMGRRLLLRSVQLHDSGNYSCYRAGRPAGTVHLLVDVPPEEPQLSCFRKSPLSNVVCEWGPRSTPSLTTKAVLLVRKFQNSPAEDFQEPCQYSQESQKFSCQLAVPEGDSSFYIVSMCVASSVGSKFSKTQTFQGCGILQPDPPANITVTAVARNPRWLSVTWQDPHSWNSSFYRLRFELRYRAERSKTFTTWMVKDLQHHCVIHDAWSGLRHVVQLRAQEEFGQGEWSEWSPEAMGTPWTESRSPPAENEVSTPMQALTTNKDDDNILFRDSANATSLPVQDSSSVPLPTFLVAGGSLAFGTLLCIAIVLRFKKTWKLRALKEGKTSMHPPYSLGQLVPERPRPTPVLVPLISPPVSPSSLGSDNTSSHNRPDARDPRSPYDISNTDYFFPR
Description: COS-7 cells (1×10^6) are inoculated into 10 mL of the medium on a 10 cm dish. Next day, the old medium is replaced with 20 mL of new medium per dish. After 3.42 mL of Opti-MEM (Invitrogen, Carlsbad, Calif., USA) is placed in a polystyrene tube, 180 μL of Trans-IT LTI reagent (Takara Bio, Shiga, Japan) is added and mixed well. The mixture (3.6 mL) is left at room temperature for 15 min. After 60 μg of human IL-6R expression vector hIL-6R/pcDNA3.1 (+) or control (empty) vector pcDNA3.1 (+) (Invitrogen) is added to 5.4 mL of Opti-MEM and mixed well with the above mixture, the resulting solution (9 mL) is allowed to stand at room temperature for 15 min, divided in 3 mL aliquots on three dishes, and incubated at 37 8 C under 5% CO2 for 3 days.

Molecule: COC(=O)[C@H](Cc1cccc(C(=N)N)c1)[C@@H](C)NC(=O)c1ccc(-c2cc[n+]([O-])cc2)cc1 (mixture of isomers) [Otamixaban, Methyl(2R,3R)-2-{3-[amino(imino)methyl]benzyl}-3-{[4-(1-oxidopyridin-4-yl)benzoyl]amino}butanoate]
combined end point of death or myocardial infarction [1]: significant reduction
half-life [2]: ~30 min

Molecule: NC(=O)c1ccc(I)c([N+](=O)[O-])c1 [Iniparib, 4-iodo-3-nitrobenzamide]
solubility [3]: soluble
cell cycle arrest (tumor cell lines): inducing cell cycle arrest in the G2/M phase
potentiation of DNA damaging modalities (tumor cell lines): potentiating the cell cycle effects of DNA damaging modalities
γ-H2AX induction (tumor cell lines): inducing γ-H2AX

Molecule: Cn1nnc2c(C(N)=O)ncn2c1=O [TMZ]
tumor growth (tumor xenografts (WM9)): No significant differences in tumor growth

Molecule: 21^A-Gly-30^Ba-L-Arg-30^Bb-L-Arg-human insulin [Gly^A21-Human Insulin-Arg^B31-Arg^B32-OH]
basal action profile (blood glucose): same advantageous basal profile as human insulin-Arg^B31-Arg^B32-OH
stability [4]: stable for a long period of time

fluorescent intensity in COS-7 cells expressing human IL-6R (human IL-6R; IL-6R transfectant): increases the fluorescent intensity
fluorescent intensity in COS-7 mock cells (human IL-6R; control vector pcDNA3.1 (+) transfectant): not in COS-7 mock cells
B1: Sarilumab: fully human monoclonal antibody that selectively targets the interleukin-6 receptor (IL-6R) (antibody, chains of the INN, looked up, V domains shown)
VH: EVQLVESGGGLVQPGRSLRLSCAASRFTFDDYAMHWVRQAPGKGLEWVSGISWNSGRIGYADSVKGRFTISRDNAENSLFLQMNGLRAEDTALYYCAKGRDSFDIWGQGTMVTVSS
VL: DIQMTQSPSSVSASVGDRVTITCRASQGISSWLAWYQQKPGKAPKLLIYGASSLESGVPSRFSGSGSGTDFTLTISSLQPEDFASYYCQQANSFPYTFGQGTKLEIK
growth of KPMM2 [5]: suppress the growth
proliferation of BAF-h130 cells induced by IL-6/sIL-6R complex (BAF-h130 cells): suppresses the proliferation of BAF-h130 cells induced by the complex of IL-6 and sIL-6R in a concentration-dependent manner
ACR20 [6]: significant and clinically relevant improvements
